This is an account of results in ChEMBL document CHEMBL1153448, “Diether derivatives of homo- or substituted piperidines as non-imidazole histamine H3 receptor ligands” (Bioorg Med Chem, 2009).

In assay [1] the target is Histamine H3 receptor (Homo sapiens, UniProt Q9Y5N1). Briefly: Displacement of [125I]Iodoproxyfran from human histamine H3 receptor expressed in HEK293 cells. In kind it is cell-based.
For assay [2], the target named is Histamine H3 receptor (Rattus norvegicus, UniProt Q9QYN8). Briefly: Binding affinity to histamine H3 receptor in rat cerebral cortex. In kind it is tissue-based.
Chain of Histamine H3 receptor (Rattus norvegicus, UniProt Q9QYN8) (Q9QYN8 whole entry): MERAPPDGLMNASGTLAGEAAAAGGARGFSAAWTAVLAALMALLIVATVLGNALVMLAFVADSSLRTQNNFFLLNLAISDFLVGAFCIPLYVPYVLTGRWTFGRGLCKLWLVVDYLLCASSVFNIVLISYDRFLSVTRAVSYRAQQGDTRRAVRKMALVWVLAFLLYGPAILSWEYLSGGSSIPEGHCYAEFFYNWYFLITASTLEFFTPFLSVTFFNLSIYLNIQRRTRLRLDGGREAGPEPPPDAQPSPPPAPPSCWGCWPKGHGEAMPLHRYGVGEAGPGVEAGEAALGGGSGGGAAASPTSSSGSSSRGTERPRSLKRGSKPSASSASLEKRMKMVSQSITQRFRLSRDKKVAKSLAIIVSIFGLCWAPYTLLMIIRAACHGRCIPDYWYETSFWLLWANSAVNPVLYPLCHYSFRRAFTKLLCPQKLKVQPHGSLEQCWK

SMILES strings stand for the structures.

Chain of Histamine H3 receptor (Homo sapiens, UniProt Q9Y5N1) (Q9Y5N1 whole entry): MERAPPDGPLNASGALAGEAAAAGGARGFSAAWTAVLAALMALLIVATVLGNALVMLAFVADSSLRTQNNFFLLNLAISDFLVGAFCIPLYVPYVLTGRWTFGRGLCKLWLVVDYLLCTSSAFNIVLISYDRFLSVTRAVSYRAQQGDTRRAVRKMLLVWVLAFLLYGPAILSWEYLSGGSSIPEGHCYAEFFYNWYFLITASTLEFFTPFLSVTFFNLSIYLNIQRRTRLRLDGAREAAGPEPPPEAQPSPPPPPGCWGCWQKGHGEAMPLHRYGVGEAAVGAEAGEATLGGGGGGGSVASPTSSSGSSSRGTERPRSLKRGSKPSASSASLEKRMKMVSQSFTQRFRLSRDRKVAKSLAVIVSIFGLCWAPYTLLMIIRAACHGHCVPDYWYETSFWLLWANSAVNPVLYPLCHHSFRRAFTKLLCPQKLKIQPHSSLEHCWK

Compound `CC1CCN(CCCOCCCOc2ccc(Cl)cc2)CC1` had a Ki in assay [1] of 27.9 nM. Turning to `Clc1ccc(CCCOCCCN2CCCCC2)cc1` [PITOLISANT], the inhibition constant (Ki) in assay [2] worked out at 17 nM. `COc1cccc(OCCOCCCN2CCCC(C)C2)c1` (stereo not drawn) yielded a Ki in assay [1] of 14.8 nM. For the compound `CC1CCCN(CCCOCCCOc2ccc(Cl)cc2)C1` (stereo not drawn), the Ki in assay [1] was 3.2 nM. Still for that read-out and setting: next, `COc1cccc(OCCCOCCCN2CCC(C)CC2)c1`: 49 nM.

In assay [1], `CC(C)(C)c1ccc(OCCCOCCCN2CCCCCC2)cc1` showed a Ki of 7.7 nM. Still for that read-out and setting: next, `CC1CCCN(CCCOCCCOc2ccc(C(C)(C)C)cc2)C1` (stereo not drawn): 12.8 nM; `CC1CCCN(CCCOCCOc2ccc(C(C)(C)C)cc2)C1` (stereo not drawn): 62 nM. With `CC1CCN(CCCOCCCOc2ccc(C(C)(C)C)cc2)CC1`, in assay [1], the Ki was found to be 51 nM. Compound `COc1cccc(OCCCOCCCN2CCCC(C)C2)c1` (stereo not drawn) gave a Ki in assay [1] of 27.3 nM. Compound `COc1cccc(OCCCOCCCN2CCCCCC2)c1` returned an inhibitory constant (Ki) in assay [1] of 18.6 nM. With `COc1cccc(OCCOCCCN2CCCCCC2)c1`, the Ki in assay [1] was determined as 7.2 nM. In the case of `COc1cccc(OCCOCCCN2CCC(C)CC2)c1`, the Ki in assay [1] was found to be 12.5 nM.
